Results from publication PMC7649969, “Pyrazolyl-pyrimidones inhibit the function of human solute carrier protein SLC11A2 (hDMT1) by metal chelation” (RSC Medicinal Chemistry, 2020).
pIC50: −log10 of the molar value. Entries after “also recorded” stand apart in the source; their conditions may differ.

Biological target: T1, SLC39A8 (hZIP8) (Homo sapiens, UniProt Q9C0K1)
T1 construct: DsRED; expressed in transfected cells; host or cells: HEK293T (ATCC CRL-3216), transient transfection with Lipofectamine 2000
T1 sequence (Q9C0K1 23-460): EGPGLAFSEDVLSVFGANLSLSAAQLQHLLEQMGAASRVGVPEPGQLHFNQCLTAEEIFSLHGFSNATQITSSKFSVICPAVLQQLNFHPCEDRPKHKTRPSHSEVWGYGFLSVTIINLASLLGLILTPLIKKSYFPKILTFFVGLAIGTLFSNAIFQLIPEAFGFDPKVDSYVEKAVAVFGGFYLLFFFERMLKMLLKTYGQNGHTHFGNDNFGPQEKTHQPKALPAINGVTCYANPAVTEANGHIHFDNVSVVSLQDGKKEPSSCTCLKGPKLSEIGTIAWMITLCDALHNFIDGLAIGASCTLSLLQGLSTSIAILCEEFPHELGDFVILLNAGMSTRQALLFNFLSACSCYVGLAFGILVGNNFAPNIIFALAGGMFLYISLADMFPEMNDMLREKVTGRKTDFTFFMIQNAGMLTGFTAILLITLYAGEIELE
Experiment: 55Fe2+ uptake by HEK293T cells transiently transfected with hZIP8
Format: cell-based
Conditions: for pIC50: HEK293T transiently transfected with hZIP8, 55Fe2+ 1 μM, pH 7.4; for inhibition of 55Fe2+ uptake by hZIP8: compound 10 μM, 55Fe2+ 1 μM, pH 7.4, HEK293T
Description: Complex formation with Fe^2+ should result in non-selective inhibition of different metal transporters. To test this hypothesis, we investigated whether human SLC39A8 (hZIP8), a transporter of Zn^2+ and Fe^2+ unrelated to SLC11 family, might also be inhibited by our hDMT1 inhibitors. Both SLCs can be tested by inhibition of radioactive iron uptake into HEK293 cells expressing the transporter, at pH 5.5 for hDMT1 and at pH 7.4 for hZIP8.
Fig. 5 Cross reactivity of hDMT1 inhibitors over the functional activity of the divalent metal transporter hZIP8. (a) ^55Fe^2+ uptake (1 μM) by HEK293T cells (source: American Type Culture Collection, catalog no. CRL-3216) transiently transfected with the empty vector (Ev), hDMT1 or hZIP8. Uptake assay was performed at the optimal pH for the functional activity of each transporter (pH 5.5 and pH 7.4 respectively). The indicated compounds (10 μM) were pre-incubated for 5 min, and then, for 15 min with both compound and ^55Fe^2+. Measured ^55Fe^2+ was corrected by subtracting the background iron uptake measured in non-transfected cells. The data was normalized to the Fe^2+ uptake measured in the presence of DMSO (0.1%) and represented as mean ± SD (N = 5–16; obtained from 2 independent experiments). IC50 determination for pyrazolyl-pyrimidone 13 (b) and bipyridine (c) in HEK293T cells transiently transfected with hDMT1 (left panels) or hZIP8 (right panels). ^55Fe^2+ uptake (1 μM) was measured in the presence of the indicated compound concentration ranges, and the measurements were corrected by subtracting the background iron uptake measured in non-transfected cells. IC50 values were calculated by fitting the data to a sigmoidal 4-parameter equation. Representative experiments are depicted, while IC50 values were calculated as mean ± SD of 3 different experiments.
Chemicals and reagents were purchased from Merck, except where indicated otherwise.
Cell Culture. Cellular experiments where conducted either with a HEK293 cell line (ATCC) stably expressing DsRED-hDMT1 plasmid or HEK293T cells (ATCC) transiently transfected with DsRED-hZIP8 or DsRED-hDMT1 plasmids. The cell line stably expressing hDMT1 was generated as described in previous works1,2. In both cases, cells were cultured in Dulbecco´s modified Eagle´s medium (DMEM) supplemented with 10 % foetal bovine serum (FBS), 10 mM HEPES and 1 mM Na-pyruvate under standard cell culture conditions (37 °C, 95 % humidity and air containing 5 % CO2). When culturing the hDMT1 overexpressing cell line, to maintain stable the expression of the exogenous plasmid, culture media was also supplemented with […] geneticin (Life Technologies). […]
Radiolabelled iron uptake assay. Cells were seeded in clear bottom, white-well, poly-D-lysine coated 96-well plates (Corning). HEK293 cells stably over-expressing hDMT1 were seeded 24 hours before the experiment at a density of 50,000 cells/well. HEK293T cells were seeded at 30,000 cells/well 48 hours before the experiment, and 24 hours after were transfected […]
using Lipofectamine 2000 (Life technologies) as described in the manufacturer’s protocol.
Before the uptake assay, culture media was aspirated and the cells were washed with the uptake solution (140 mM NaCl, 2.5 mM KCl, 1 mM CaCl2, 1 mM MgCl2, 1.2 mM K2HPO4, 10 mM glucose, 5 mM HEPES, 5 mM MES, pH 7.4). To determine the iron uptake, the cells were incubated for 15 min at room temperature (RT) with uptake solution (pH 5.5) supplemented with 100 µM Ascorbic acid, and the indicated amount of non-radioactive Ferrous iron (Fe2+) and radiolabelled 55Fe2+ (American Radiolabelled) (0.5 µCi/mL). To stop the uptake process, the solution containing the radiotracer was removed and cells were washed with ice-cold uptake solution (pH 7.5). To determine the iron accumulated within the cells during the incubation time, the scintillation cocktail Mycrosinth 20 (PerkinElmer) was added to each well, and the cells were incubated during 1 hour at RT under constant agitation. […]

| Compound | inhibition of 55Fe2+ uptake by hZIP8 | pIC50 |
| --- | --- | --- |
| c1ccc(-c2ccccn2)nc1 [bipyridine] | inhibited both transporters | ~5.19 |
| Cc1cc(O)nc(-n2nc(C)cc2C)n1 [Compound 5] | inhibited both transporters | – |
| Cc1cc(=O)[nH]c(-n2nc3c(c2C)CCCC3)n1 [Compound 13] | inhibited both transporters; also recorded: cross-inhibition | ~5.96 |
| N=C(N)SCc1cccc2c1oc1c(CSC(=N)N)cccc12 [Compound 1, reference compound] | no measurable activity on hZIP8 | – |
| Cc1nn(-c2ccccn2)c(O)c1C(=O)Nc1cccc(C(F)(F)F)c1 [Compound 3, reference compound] | inhibited both transporters | – |
